Test results taken from US20150335624A1, “COMPOSITIONS AND METHODS FOR USING HUPERZINE AND ANALOGS THEREOF” (INSERO HEALTH INC., priority 2013, published 2015).
“And” between values parts separate entries of the source, which are not always exact repeats. Equal entries are not always repeated.

Tests used:
Format in all cases: in vivo, human
[1] = Phase 1 clinical trial, peak plasma level of huperzine A
Method: (§1) A phase 1 clinical trial was conducted with huperzine A. The primary aim of the study was to conduct a proof-of-principle assessment of the safety and tolerability and early stage pharmacokinetics of dietary supplement Huperzine A up to 6.4 mg/day as add-on, open-label therapy in 8 subjects with drug-resistant epilepsy. The hypothesis was that Huperzine A in 8 subjects with drug-resistant epilepsy as add-on; open-label therapy would be well tolerated when titrated from 1.6 mg/day up to 6.4 mg/day. The secondary aim was to acquire preliminary data on the parasympathetic effect of Huperzine A on cardiac function.
(§2) The trial was a single-center, in-patient, open-label, dose-escalation study conducted at one site. This study would enroll up to 10 adults (≧18 years to 65 years) to obtain 8 randomized subjects with drug-resistant epilepsy that were not well controlled with 1 to 3 concomitant anti-epileptic drugs (AEDs).
The study drug was supplied as 0.200 mg tablets and dispensed by the study site's pharmacy. Huperzine A tablets derived from Huperzia serrata were sourced from a commercially available supplier in the United States.
Randomly chosen tablets of the supplied trial medication, as well as a composite have been assessed for purity by an independent laboratory using standard analytic techniques (HPLC) and found to contain between 0.145 mg and 0.166 mg of Huperzine A per tablet. Subject dosing was based on the label potency of the tablets (i.e. 0.200 mg). Tablets were randomly assigned to each subject in a dosing bottle container containing 120 tablets per subject. Each bottle was labeled with a study identifier. subject ID, dose of each tablet, dosing instructions, expiration date, and lot number.
(§3) Eight subjects with drug-resistant epilepsy were provided huperzine A. Six subjects completed the study. Doses were varied as in Table A. Doses were six hours apart. Subjects 1-3 began dosing at 18:00, subjects 4-8 began dosing at 12:00.

CRP = assay: Phase 1 clinical trial, cardiologic marker CRP
Method: as §1, §2, §3
(§4) Table B provides biomarker test results. Baseline, peak and change values represented as mean±the standard error of the mean (SEM). Statistical data is included for all subjects excluding subject #7 because that subject was on a conflicting medication. Peak represents peak plasma level or, if unavailable, the nearest values for all values except cardiological markers where peak represents Day 2. The p-values were calculated from one-sided paired t tests.

[2] = Phase 1 clinical trial, renal marker serum creatinine
Method: as §1, §2, §3, §4

[3] = Phase 1 clinical trial, renal marker eGFR (creatinine clearance rate); conditions: excluding #7
Method: as §1, §2, §3, §4

IL-1 beta = assay: Phase 1 clinical trial, inflammatory marker IL-1 beta; conditions: excluding #7
Method: as §1, §2, §3, §4

IL-6 [4] = assay: Phase 1 clinical trial, inflammatory marker IL-6 (IITR1); conditions: excluding #7
Method: as §1, §2, §3, §4

IL-6 [5] = assay: Phase 1 clinical trial, inflammatory marker IL-6 (Labcorp, different test center); conditions: excluding #7
Method: as §1, §2, §3, §4

IL-10 = assay: Phase 1 clinical trial, inflammatory marker IL-10; conditions: excluding #7
Method: as §1, §2, §3, §4

IL-17 = assay: Phase 1 clinical trial, inflammatory marker IL-17; conditions: excluding #7
Method: as §1, §2, §3, §4

TNF-alpha = assay: Phase 1 clinical trial, inflammatory marker TNF-alpha; conditions: excluding #7
Method: as §1, §2, §3, §4

MCP-1 = assay: Phase 1 clinical trial, marker MCP-1
Method: as §1, §2, §3, §4
Monocyte chemotactic protein-1 (MCP-1) as a marker is implicated in pathogeneses of several diseases characterized by monocytic infiltrates. MCP-1 is involved in the neuroinflammatory processes that take place in the various diseases of the central nervous system, which are characterized by neuronal degeneration. MCP-1 expression in glial cells is increased in epilepsy, brain ischemia, Alzheimer's disease, some encephalomyelitis, and traumatic brain injury.

[6] = Phase 1 clinical trial, ECG recording of cardiac function (heart rate, HRV, TWA, QT, VPB, VT); conditions: for T-wave alternans (TWA): all leads; for TWA elevated: in the normal range
Method: as §1, §2, §3
Heart rate, heart rate variability. T-wave alternans, QT interval, ventricular premature beats, and ventricular tachycardia were studied in all 8 subjects enrolled in the study. […] This individual experienced transient peaks in heart rate and a few ventricular premature beats, probably due to an emesis-related surge in sympathetic nerve activity. […] ECG recordings show a transient disconnect in subjects one.

[7] = peak vs baseline, mean ± SEM, excluding #7
[8] = 8 subjects, full recording period
[9] = 8 subjects, full recording period, listed as huperzine

C/C=C1\[C@H]2C=C(C)C[C@]1(N)c1ccc(=O)[nH]c1C2 [Huperzine A, (1R,9,13E)-1-amino-13-ethylidene-11-methyl-6-azatricyclo[7.3.1.0^2,7]trideca-2(7),3,10-trien-5-one]
Peak Plasma ([1]; Subject 1, oral tablets, 4 doses 0.40-0.80 mg six hours apart): 2.6 ng/mL
Peak Plasma ([1]; Subject 2, 3 doses 0.40-0.80 mg six hours apart): 6.7 ng/mL
Peak Plasma ([1]; Subject 3, 12 doses 0.40-0.80 mg six hours apart): 9.6 ng/mL
Peak Plasma ([1]; Subject 4, 11 doses 0.40-0.60 mg six hours apart): 11.8 ng/mL
Peak Plasma ([1]; Subject 5, 13 doses 0.40-0.80 mg six hours apart): 12.9 ng/mL
Peak Plasma ([1]; Subject 6, 13 doses 0.40-0.60 mg six hours apart): 15.9 ng/mL
Peak Plasma ([1]; Subject 7, 13 doses 0.40-0.60 mg six hours apart): 13.2 ng/mL
decrease in CRP (CRP; from an average of 2.6±3.0 mg/L, p-value 0.02): 29%
CRP Peak (CRP; mean ± SEM, subjects excluding #7, peak = Day 2, baseline 2.6 ± 3.0): 1.8 ± 2.3 mg/L
CRP % Change (CRP; peak vs baseline, excluding #7): −29%
CRP Change (CRP; [7]): -0.7 ± 0.8 mg/L
decrease in serum creatinine ([2]; from an average of 0.9 mg/dL, p-value 0.02): 18%
Serum creatine Peak ([2]; mean ± SEM, excluding #7, at peak plasma level, baseline 0.9 ± 0.3): 0.7 ± 0.1 mg/dL
Serum creatine % Change ([2]; peak vs baseline, excluding #7): −18%
Serum creatine Change [2, 7]: -0.2 ± 0.2 mg/dL
eGFR (flow rate) Peak ([3]; mean ± SEM, at peak plasma level, baseline 98.3 ± 23.5): 107.6 ± 13.4 mL/min/1.73
eGFR (flow rate) % Change ([3]; peak vs baseline): 9%
eGFR (flow rate) Change ([3]; peak vs baseline, mean ± SEM): 9.3 ± 12.7 mL/min/1.73
IL-1 beta Peak (IL-1 beta; mean ± SEM, at peak plasma level, baseline 23.9 ± 12.4): 30.0 ± 9.8 pg/mL
IL-1 beta % Change (IL-1 beta; peak vs baseline): 26%
IL-1 beta Change (IL-1 beta; peak vs baseline, mean ± SEM): 6.1 ± 5.2 pg/mL
IL-6 (IITR1) Peak (IL-6 [4]; mean ± SEM, at peak plasma level, baseline 1.3 ± 0.2): 2.8 ± 0.7 pg/mL
IL-6 (IITR1) % Change (IL-6 [4]; peak vs baseline): 115%
IL-6 (IITR1) Change (IL-6 [4]; peak vs baseline, mean ± SEM): 1.5 ± 1.5 pg/mL
IL-6 (Labcorp) Peak (IL-6 [5]; mean ± SEM, at peak plasma level, baseline 1.8 ± 1.2): 4.2 ± 2.4 pg/mL
IL-6 (Labcorp) % Change (IL-6 [5]; peak vs baseline): 133%
IL-6 (Labcorp) Change (IL-6 [5]; peak vs baseline, mean ± SEM): 2.4 ± 2.6 pg/mL
IL-10 Peak (IL-10; mean ± SEM, at peak plasma level, baseline 7.3 ± 2.7): 8.8 ± 1.5 pg/mL
IL-10 % Change (IL-10; peak vs baseline): 21%
IL-10 Change (IL-10; peak vs baseline, mean ± SEM): 1.6 ± 1.6 pg/mL
IL-17 Peak (IL-17; mean ± SEM, at peak plasma level, baseline 35.1 ± 17.7): 36.1 ± 19.2 pg/mL
IL-17 % Change (IL-17; peak vs baseline): 3%
IL-17 Change (IL-17; peak vs baseline, mean ± SEM): 1.0 ± 1.0 pg/mL
TNF-alpha Peak (TNF-alpha; mean ± SEM, at peak plasma level, baseline 1.6 ± 0.4): 1.3 ± 0.4 pg/mL
TNF-alpha % Change (TNF-alpha; peak vs baseline): −15%
TNF-alpha Change (TNF-alpha; peak vs baseline, mean ± SEM): -0.2 ± 0.1 pg/mL
decrease in levels of MCP-1 (MCP-1; from an average of 175.2±43.5 pg/mL): 15%
MCP-1 Peak (MCP-1; mean ± SEM, excluding #7, at peak plasma level, baseline 175.2 ± 43.5): 148.9 pg/mL and 148.9 ± 26.3 pg/mL
MCP-1 % Change (MCP-1; peak vs baseline, excluding #7): −15%
MCP-1 Change (MCP-1; [7]): -26.3 ± 28.6 pg/mL
T-wave alternans (TWA) [6, 8]: generally low in all leads
T-wave alternans (TWA) [6, 9]: low TWA levels
QTc interval ([6]; 8 subjects, corrected using Bazett's formula): none of the 8 subjects in the study exhibited an increase in QTc interval
episodes of ventricular tachycardia ([6]; 8 subjects, entire recording period): no episodes of ventricular tachycardia occurred in any of the 8 subjects
Heart rate [6, 8]: stable throughout the recordings in all but one subject
QT interval [6, 8]: unaltered
ventricular premature beat (VPB) count [6, 8]: low
Heart rate [6, 9]: 7 of the 8 subjects exhibited stable heart rates
heart rate variability, low frequency/high frequency (LF/HF) ratio ([6]; 8 subjects, full recording period, normal range about 1 to about 4): stable
cardiac electrical activity ([6]; after huperzine administration): remains normal
LF/HF ratio trend ([6]; during the first 6 hours of recording): trend toward lowering of the LF/HF ratio
TWA elevated ([6]; subject 1007): about 25 μV
increase in heart rate ([6]; subject only, apparently related to emesis): about 120 beats/min
TWA elevated ([6]; subject two, during final 120-beat/min heart rate surge): about 30 μV
